Source: the supplement of paper PMC10307832

Experiments:
Assay in all cases: relative viability (nuclei count vs DMSO), 5 days (fraction); higher = more cells survive
CAP-232 = compound: C[C@H]([C@@H](C(=O)N)NC(=O)[C@@H]1CSSC[C@@H](C(=O)N[C@H](C(=O)N[C@@H](C(=O)N[C@H](C(=O)N1)CCCCN)CC2=CNC3=CC=CC=C32)CC4=CC=C(C=C4)O)NC(=O)[C@@H](CC5=CC=CC=C5)N)O [CAP-232]
How it was run: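 Hoechst staining, done together with fixation and permeabilisation, marked nuclei for 4× imaging and MetaXpress counting. This followed 5 days without medium change after lung cancer cell lines, kept overnight at 37 °C in 1536-well plates, were pinned with five library-drug doses (not always all listed) spaced by √10 on vehicle-anchored plates. Viability is the ratio of treated-well to vehicle-well nuclei, expressed as a median across plates. Plates passed only at control CV below 25% with at least one doubling.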

CAP-232 + Bortezomib = compound: C[C@H]([C@@H](C(=O)N)NC(=O)[C@@H]1CSSC[C@@H](C(=O)N[C@H](C(=O)N[C@@H](C(=O)N[C@H](C(=O)N1)CCCCN)CC2=CNC3=CC=CC=C32)CC4=CC=C(C=C4)O)NC(=O)[C@@H](CC5=CC=CC=C5)N)O [CAP-232] + CC(C)C[C@H](NC(=O)[C@H](Cc1ccccc1)NC(=O)c1cnccn1)B(O)O [Bortezomib] (partner 0.002 µM)
How it was run: (§1)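 Relative viability divides the nuclei count in treated wells by that in vehicle wells. Lung cancer cell lines were seeded in 1536-well plates, dosed by pin tool the next day, and fixed and stained after 5 days in one step with final 0.05% Triton X-100, 1% formaldehyde and 1 ug/ml Hoechst. Dosing was a single drug or a fixed anchor-drug dose plus five library-drug doses (not always all listed) in √10 steps, and values are medians of duplicate plates imaged at 4×.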

CAP-232 + Navitoclax = compound: C[C@H]([C@@H](C(=O)N)NC(=O)[C@@H]1CSSC[C@@H](C(=O)N[C@H](C(=O)N[C@@H](C(=O)N[C@H](C(=O)N1)CCCCN)CC2=CNC3=CC=CC=C32)CC4=CC=C(C=C4)O)NC(=O)[C@@H](CC5=CC=CC=C5)N)O [CAP-232] + CC1(C)CCC(c2ccc(Cl)cc2)=C(CN2CCN(c3ccc(C(=O)NS(=O)(=O)c4ccc(N[C@H](CCN5CCOCC5)CSc5ccccc5)c(S(=O)(=O)C(F)(F)F)c4)cc3)CC2)C1 [Navitoclax] (partner 0.5 µM)
How it was run: as §1

CAP-232 + Foretinib = compound: C[C@H]([C@@H](C(=O)N)NC(=O)[C@@H]1CSSC[C@@H](C(=O)N[C@H](C(=O)N[C@@H](C(=O)N[C@H](C(=O)N1)CCCCN)CC2=CNC3=CC=CC=C32)CC4=CC=C(C=C4)O)NC(=O)[C@@H](CC5=CC=CC=C5)N)O [CAP-232] + COc1cc2c(Oc3ccc(NC(=O)C4(C(=O)Nc5ccc(F)cc5)CC4)cc3F)ccnc2cc1OCCCN1CCOCC1 [Foretinib] (partner 0.25 µM)
How it was run: as §1

CAP-232 + Lapatinib = compound: C[C@H]([C@@H](C(=O)N)NC(=O)[C@@H]1CSSC[C@@H](C(=O)N[C@H](C(=O)N[C@@H](C(=O)N[C@H](C(=O)N1)CCCCN)CC2=CNC3=CC=CC=C32)CC4=CC=C(C=C4)O)NC(=O)[C@@H](CC5=CC=CC=C5)N)O [CAP-232] + CS(=O)(=O)CCNCc1ccc(-c2ccc3ncnc(Nc4ccc(OCc5cccc(F)c5)c(Cl)c4)c3c2)o1 [Lapatinib] (partner 2 µM)
How it was run: as §1

CAP-232 + Pictilisib = compound: C[C@H]([C@@H](C(=O)N)NC(=O)[C@@H]1CSSC[C@@H](C(=O)N[C@H](C(=O)N[C@@H](C(=O)N[C@H](C(=O)N1)CCCCN)CC2=CNC3=CC=CC=C32)CC4=CC=C(C=C4)O)NC(=O)[C@@H](CC5=CC=CC=C5)N)O [CAP-232] + CS(=O)(=O)N1CCN(Cc2cc3nc(-c4cccc5[nH]ncc45)nc(N4CCOCC4)c3s2)CC1 [Pictilisib] (partner 1 µM)
How it was run: as §1

CAP-232 + Crizotinib = compound: C[C@H]([C@@H](C(=O)N)NC(=O)[C@@H]1CSSC[C@@H](C(=O)N[C@H](C(=O)N[C@@H](C(=O)N[C@H](C(=O)N1)CCCCN)CC2=CNC3=CC=CC=C32)CC4=CC=C(C=C4)O)NC(=O)[C@@H](CC5=CC=CC=C5)N)O [CAP-232] + C[C@@H](Oc1cc(-c2cnn(C3CCNCC3)c2)cnc1N)c1c(Cl)ccc(F)c1Cl [Crizotinib] (partner 1 µM)
How it was run: as §1

CAP-232 + Linsitinib = compound: C[C@H]([C@@H](C(=O)N)NC(=O)[C@@H]1CSSC[C@@H](C(=O)N[C@H](C(=O)N[C@@H](C(=O)N[C@H](C(=O)N1)CCCCN)CC2=CNC3=CC=CC=C32)CC4=CC=C(C=C4)O)NC(=O)[C@@H](CC5=CC=CC=C5)N)O [CAP-232] + C[C@]1(O)C[C@@H](c2nc(-c3ccc4ccc(-c5ccccc5)nc4c3)c3c(N)nccn32)C1 [Linsitinib] (partner 1 µM)
How it was run: as §1

CAP-232 + Alpelisib = compound: C[C@H]([C@@H](C(=O)N)NC(=O)[C@@H]1CSSC[C@@H](C(=O)N[C@H](C(=O)N[C@@H](C(=O)N[C@H](C(=O)N1)CCCCN)CC2=CNC3=CC=CC=C32)CC4=CC=C(C=C4)O)NC(=O)[C@@H](CC5=CC=CC=C5)N)O [CAP-232] + Cc1nc(NC(=O)N2CCC[C@H]2C(N)=O)sc1-c1ccnc(C(C)(C)C(F)(F)F)c1 [Alpelisib] (partner 2 µM)
How it was run: as §1

CAP-232 + Olaparib = compound: C[C@H]([C@@H](C(=O)N)NC(=O)[C@@H]1CSSC[C@@H](C(=O)N[C@H](C(=O)N[C@@H](C(=O)N[C@H](C(=O)N1)CCCCN)CC2=CNC3=CC=CC=C32)CC4=CC=C(C=C4)O)NC(=O)[C@@H](CC5=CC=CC=C5)N)O [CAP-232] + O=C(c1cc(Cc2n[nH]c(=O)c3ccccc23)ccc1F)N1CCN(C(=O)C2CC2)CC1 [Olaparib] (partner 8 µM)
How it was run: as §1

| Cell Line | relative viability (CAP-232; 0.4 µM) | relative viability (CAP-232; 1.265 µM) | relative viability (CAP-232; 4 µM) | relative viability (CAP-232; 12.65 µM) | relative viability (CAP-232 + Bortezomib; first compound 0.4 µM) | relative viability (CAP-232 + Bortezomib; first compound 1.265 µM) | relative viability (CAP-232 + Bortezomib; first compound 4 µM) | relative viability (CAP-232 + Bortezomib; first compound 12.65 µM) | relative viability (CAP-232 + Navitoclax; first compound 0.4 µM) | relative viability (CAP-232 + Navitoclax; first compound 1.265 µM) | relative viability (CAP-232 + Navitoclax; first compound 4 µM) | relative viability (CAP-232 + Navitoclax; first compound 12.65 µM) | relative viability (CAP-232 + Foretinib; first compound 0.4 µM) | relative viability (CAP-232 + Foretinib; first compound 1.265 µM) | relative viability (CAP-232 + Foretinib; first compound 4 µM) | relative viability (CAP-232 + Foretinib; first compound 12.65 µM) | relative viability (CAP-232 + Lapatinib; first compound 0.4 µM) | relative viability (CAP-232 + Lapatinib; first compound 1.265 µM) | relative viability (CAP-232 + Lapatinib; first compound 4 µM) | relative viability (CAP-232 + Lapatinib; first compound 12.65 µM) | relative viability (CAP-232 + Pictilisib; first compound 0.4 µM) | relative viability (CAP-232 + Pictilisib; first compound 1.265 µM) | relative viability (CAP-232 + Pictilisib; first compound 4 µM) | relative viability (CAP-232 + Pictilisib; first compound 12.65 µM) | relative viability (CAP-232 + Crizotinib; first compound 0.4 µM) | relative viability (CAP-232 + Crizotinib; first compound 1.265 µM) | relative viability (CAP-232 + Crizotinib; first compound 4 µM) | relative viability (CAP-232 + Crizotinib; first compound 12.65 µM) | relative viability (CAP-232 + Linsitinib; first compound 0.4 µM) | relative viability (CAP-232 + Linsitinib; first compound 1.265 µM) | relative viability (CAP-232 + Linsitinib; first compound 4 µM) | relative viability (CAP-232 + Linsitinib; first compound 12.65 µM) | relative viability (CAP-232 + Alpelisib; first compound 0.4 µM) | relative viability (CAP-232 + Alpelisib; first compound 1.265 µM) | relative viability (CAP-232 + Alpelisib; first compound 4 µM) | relative viability (CAP-232 + Alpelisib; first compound 12.65 µM) | relative viability (CAP-232 + Olaparib; first compound 0.4 µM) | relative viability (CAP-232 + Olaparib; first compound 1.265 µM) | relative viability (CAP-232 + Olaparib; first compound 4 µM) | relative viability (CAP-232 + Olaparib; first compound 12.65 µM) |
| --- | --- | --- | --- | --- | --- | --- | --- | --- | --- | --- | --- | --- | --- | --- | --- | --- | --- | --- | --- | --- | --- | --- | --- | --- | --- | --- | --- | --- | --- | --- | --- | --- | --- | --- | --- | --- | --- | --- | --- | --- |
| NCI-H1299 | 1.03 | 1.01 | 1.04 | 1.02 | 1.02 | 1.02 | 1.06 | 1.01 | 1.04 | 0.991 | 1.1 | 1.1 | 1.09 | 1.06 | 1.08 | 1.05 | 1.03 | 0.963 | 0.908 | 0.96 | 0.747 | 0.746 | 0.626 | 0.589 | 0.955 | 0.952 | 0.941 | 1.02 | 1.15 | 0.92 | 1.06 | 1.09 | 1.04 | 1.05 | 1.03 | 1.08 | 0.942 | 1.01 | 0.977 | 0.934 |
| Calu-6 | 1.12 | 1.02 | 1.15 | 0.74 | 1.16 | 1.04 | 0.947 | 0.653 | 0.963 | 0.941 | 0.831 | 0.446 | 0.867 | 1.02 | 0.995 | 0.561 | 1.26 | 1.03 | 1.15 | 0.664 | 0.956 | 0.889 | 0.945 | 0.585 | 0.961 | 0.842 | 0.988 | 0.555 | 1.05 | 1.01 | 0.929 | 0.988 | 1.09 | 1.08 | 1 | 0.654 | 0.616 | 0.542 | 0.623 | 0.394 |
